Series [1] relates to G. duodenalis trophozoites. Put plainly: In vitro susceptibility, MTT reduction. In kind it is cell-based, Giardia duodenalis (WB strain). A general note: Formazan colour is commonly taken as a measure of viable cells.
Series [2] concerns G. duodenalis trophozoites. Put plainly: In vitro susceptibility, trypan blue exclusion (TBE). The format is cell-based, Giardia duodenalis (WB strain). The following applies: 24 h exposure. Here is the method:
G. duodenalis trophozoites from the WB strain (ATCC # 30957) were axenically cultured in modified Diamond's TYI-S-33 medium (Keister, [1983]) without bile at 37°C. Cell harvests were carried out by chilling flasks at the log phase of growth reached after 72–96 h routine subcultures. Detached trophozoites were either directly counted in a haemocytometer or washed 3 times with phosphate buffer saline (PBS) prior to counting and the cell number was adjusted as required in the assays.
When complete TYI-S-33 medium (final cysteine concentration = 12.4 mM) was used, it was no older than 10 days to avoid cysteine oxidation. […] Parasites were harvested and counted and trophozoite's viability was determined by physiological methods to determine the growth capacity of trophozoites after drug exposure (subculture in liquid medium SCLM)] or trophozoite and membrane integrity [direct cell count (DCC) and trypan blue exclusion (TBE), respectively]. […] All these protocols have been described elsewhere (Argüello-García et al., [2004]) except that DCC values were calculated from total cell numbers of compound-exposed trophozoites divided by the initial trophozoites' inoculum (1 × 10^6) and TBE was performed by incubating PBS-washed parasites in a trypan blue solution (0.4% [w/v] final concentration) for 5 min at room temperature followed by microscopic count of “stained” (non-viable) parasites. […]

In another series the target is T1, giardipain-1 (Giardia intestinalis, UniProt P92132).
T1 construct: the 25 kDa band that contains the processed form of the cathepsin B-like protease named as giardipain-1; endogenous in cells
Put plainly: Inhibition of cytolytic effect of giardipain-1 on IEC6 cell monolayers. The format is cell-based, Giardia duodenalis. Conditions: 5.3 mM pre-incubated 30 min with giardipain-1 16 μg/mL; 100 min. As to the method:
Additional assays were carried out using the MLCs of TACs (without giardipain-1) previously obtained in trophozoite cultures to monitor their toxicity. These solutions were added to monolayers of the intestinal cell line IEC6 grown in 1 cm^2-microwells and incubated for 100 min at 37°C. After incubation, supernatants were discarded and monolayers were fixed with 2% paraformaldehyde in PBS. The effects of TACs and E64 on the cytolytic effect of giardipain-1 were evaluated by light microscopy using Nomarski optics (Axioskop 40, Zeiss).

The subject of series [3] is G. duodenalis trophozoites. Briefly: ROS formation, H2DCFDA flow cytometry. The format is cell-based, Giardia duodenalis. Conditions: 1.2 mM (twice MLC), 24 h. As to the method:
The identification and quantitative determinations of trophozoites were carried out as follows: (a) apoptosis or necrosis were determined using anti-annexin V-fluorescein isothiocyanate (FITC) antibodies or PI as respective markers, (b) oxidative stress was determined by formation of reactive oxygen species (ROS) with the fluorescent ROS-complexing agent 5-(and 6)-carboxy 2′7′-dichlorodihydrofluorescein diacetate (H2DCFDA), and (c) determination of trophozoites cell cycle stages (G1, S, G2, and G2/M) after exposure to ALC or to a control drug (albendazole, ABZ) was carried out as previously described (Martínez-Espinosa et al., [2015]). In all these assays 20,000 cells per sample were recorded.

The next series relates to Eimeria tenella. Further details: method as in Alnassan et al., 2015. The following applies: ref Alnassan et al., 2015; cited from earlier work.
A further series concerns Babesia microti. Further details: method as in Salama et al., 2014. The following applies: mice, 30 mg/kg orally for 5 days; ref Salama et al., 2014; cited from earlier work.
A further series relates to Plasmodium berghei. More on the design: method as in Coppi et al., 2006. The following applies: mice, ref Coppi et al., 2006, cited from earlier work.
For series [4] the following is noted: rat, no reference given; cited from earlier work.

In brackets after ≈: the same amount, converted by molar mass. Several values for one entry are separate records, joined by “and”; a condition that tells them apart may be missing. Equal values may be shown once. Read-outs that look alike come from different tables or passages of the source.

T1 sequence (P92132 75-300): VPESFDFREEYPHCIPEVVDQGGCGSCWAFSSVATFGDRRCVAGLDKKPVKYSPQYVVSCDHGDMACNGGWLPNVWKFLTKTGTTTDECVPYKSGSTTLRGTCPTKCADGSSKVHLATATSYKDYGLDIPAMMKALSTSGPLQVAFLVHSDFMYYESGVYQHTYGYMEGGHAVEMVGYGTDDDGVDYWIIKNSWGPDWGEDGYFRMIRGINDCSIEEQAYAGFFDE

In general, IC50 refers to the concentration that gives 50% inhibition. The low end stands for inhibition by little substance, the high end for a need for much substance. For orientation: IC99 means the concentration needed for an effect of 99%. For the molecule `C=CCS[S+]([O-])CC=C` (centres unmarked) [ALC, diallyl thiosulfinate], the IC50 in series [1] (Giardia duodenalis, MTT assay, value as quoted in Discussion) is 686 µM; in series [2] (Giardia duodenalis), 405 ± 38 µM. In addition, the “MLC (mM) ±SD” value in series [1] (MTT, 24 h exposure) is 1.490 ± 0.025 mM (≈ 242 µg/mL); in series [2] it was 1.12 mM and 1.127 ± 0.05 mM. The “effect on giardipain-1 cytopathic damage in IEC6 monolayers” value on giardipain-1 is “noticeably blocked these effects”. In series [3], the “cells positive for ROS (total)” value worked out at 0.75%. For the same molecule, the IC99 in the series on Eimeria tenella was 11.1 mM. Moreover, the parasitemia result with Babesia microti is given as “significantly reduced parasitemia”. The mortality entry in the series with Plasmodium berghei (4 daily doses of 8 mg/kg intravenously) and in the series on Plasmodium berghei (4 daily doses of 9 mg/kg orally) was “markedly reduced mortality” throughout. Also, the oral lethality in series [4] is listed as 980 mg/kg.

Source of the values: publication PMC6196658, “Activity of Thioallyl Compounds From Garlic Against Giardia duodenalis Trophozoites and in Experimental Giardiasis” (Frontiers in Cellular and Infection Microbiology, 2018).
